Test results published in patent US10231958B2, “Methods and compositions for enhancing chemotherapy” (THE BOARD OF REGENTS OF THE UNIVERSITY OF TEXAS SYSTEM, priority 2015, dated 2019).

Columns and labels:
[1] = system: protein sulfhydryl (protein-SH) groups; assay: Protein sulfhydryl groups (dibromobimane assay); type: cell-based; conditions: BSO treatment plus MMS
Description: Protein reduced thiol groups (Protein-SH) were measured by dibromobimane assays with minor modifications (PMID:20463849). The 6-well plated cells (500,000 cells) were scraped in 0.6 mL PBS and 200 μL Perchloric acid (6 N) was added to precipitate proteins. The samples were incubated for 5 min in ice, centrifuged (14,000×g) Supernatants containing small peptides and glutathione were discarded and pellets were resuspended in 100 μL NaOH 0.1N, neutralized with 100 μL ice cold Perchloric acid (0.1 N), and 0.1 N PBS was added to keep pH constant. A stock solution of 4 mM dibromobimane in DMSO was added to a final concentration 40 μM, and incubated for 30 30 min at 37° C. Dibromobimane-protein fluorescence was measured at Ex=393 and, Em=477 nm.

[2] = system: Intracellular ROS production; assay: Real-time ROS production (DCF assay); type: cell-based; conditions: for effect on ROS levels: Trolox 200 μM, NAC 7.5 mM, GSH-E 10 mM
Description: Intracellular ROS production was detected using DCFH-DA probe (Sigma) (Zanotto-Filho et al., 2010, Cancer Lett 288, 192-203). This reagent enters the cells and reacts predominantly with highly oxidizing species of ROS, such as hydroxyl radicals, hydroperoxides, and peroxynitrite, thus producing the fluorophore DCF. Briefly, cells were seeded in black-edge clear bottom 96-well plates. After reaching 70% confluence, medium was changed and cells were incubated with 20 μM DCFH-DA dissolved in medium containing 0.5% FBS. After 1 h pre-incubation to allow DCFH-DA uptake, treatments were added to its respective final concentrations and DCF fluorescence was monitored at 0.5, 1, 3, 8, 12, 16 and 24 h in a fluorescence reader (Ex/Em=485/532 nm). Hydrogen peroxide was used as a positive control and N-acetylcysteine (NAC), GSH-ethyl-ester (GSH-E) and Trolox were used as antioxidant standards. As a control, at the end of 24 h, cell viability was assessed and compared to wells in the absence of DCFH-DA.

[3] = system: Kc167 cells, MEFs, and MDA-MB231 breast cancer cells; assay: Cell viability (CellTiter-Glo); type: cell-based, D. melanogaster, mouse, human; conditions: for effect on MMS toxicity / effect on toxicity of 4-HC, TMZ and CDDP: pre-incubation; for effect on MMS toxicity: then MMS, all cell types tested, 48 h; for effect on toxicity of 4-HC, TMZ and CDDP: then alkylator
Description: The D. melanogaster embryonic cell line Kc167 was grown in Schneider medium (Invitrogen, Carlsbad, Calif.) supplemented with 10% heat-inactivated (56° C./30 min) fetal bovine serum (FBS), penicillin and streptomycin at 22° C. in a humidified incubator. Primary MEFs were obtained by harvesting 14.5-day C57BL/6J embryos as previously described (Ravi et al., 2009, PLoS Genet 5, e1000527). Briefly, fetal liver and head were removed and the remainder of the embryo was mechanically disaggregated in plating medium. A suspension of single-cells was plated in DMEM (plus 10% FBS, 100 U/mL penicillin and 100 μg/mL streptomycin). MEFs were grown for two passages before freezing aliquots. Aliquots were taken and expanded as needed for each experiment. MDA-MB231, SkBr3 and MCF-7 breast cancer cells lines were obtained from ATCC and grown in DMEM supplemented with 10% inactivated FBS plus antibiotics in a 37° C. humidified incubator at […] atmosphere. Cells were kept and treated in the exponential phase of growing (60-70% confluence). […] DMSO concentrations were kept to a maximum of 0.1% for all experiments. Cell viability was assessed using CellTiter-Glo Luminescent Viability assay (Promega) in 384 or 96-well plates white-border clear-bottom plated cells. For caspase-3/7 activity, Caspase-Glo 3/7 Assay kits were used (Promega). For caspase assays, the cells were seeded in 96-well plates and assayed directly after treatments. Caspase-3/7 inhibitor (Z-DEVD-fmk) was used to ensure assay specificity. LDH release into culture medium was quantified by Cytotox-96 Non-Radioactive assay kit in agreement with instructions (Promega).

[4] = system: Intracellular glutathione levels; assay: Glutathione assay; type: cell-based; conditions: glutathione precursors
Description: Intracellular glutathione levels were measured using the Glutathione (GSH/GSSG/Total) Fluorometric Assay Kit (BioVision Incorporated, Calif.), following manufacturer protocol. Briefly, 1×10^6 cells were scraped in PBS and centrifuged. Pellets were resuspended in 100 μL Glutathione assay buffer. 60 μL of this homogenate was mixed with PCA (perchloric acid) and centrifuged. Supernatant containing small molecules including GSH were neutralized with KOH and 3 fractions were collected and separated to analyze reduced (GSH), oxidized (GSSG) and total glutathione forms (GSH+GSSG) by reaction with OPA probe (o-phthalaldehyde) in the presence or absence of GSH quencher or reducing agents depending on the compound to be determined. Fluorescence was monitored at Ex/Em=340/420 nm for 40 min. Glutathione forms were calculated and normalized by protein (Bradford's assay).

[5] = system: NRF2, GCLC, ER stress markers; assay: Western blot of NRF2, GCLC and ER stress markers; type: cell-based; conditions: CHX 1 μg/mL, Actinomycin D 5 μg/mL, NAC 7.5 mM
Description: (§1) Western blot. Protein lysates were prepared using RIPA buffer containing 5% sodium deoxycholate, 0.1% SDS, 0.1% Igepal in PBS with a cocktail of protease and phosphatase inhibitors (1 mM PMSF, 1 mM sodium orthovanadate, 1 mM NaF, and 30 μL/mL aprotinin (Sigma-Aldrich, USA)) and clarified by centrifugation. Protein concentration was determined using Bradford Protein Assay Reagent (Biorad, Hercules, Calif.). Equal amounts of protein were resolved using 8-12% SDS polyacrylamide gel, transferred onto nitrocellulose membranes (Hybond-ECL, GE Healthcare Lifesciences, Piscataway, N.J.) and detected using Lumiglo system (Cell Signaling Technology, Calif.) and x-ray films. Primary antibodies included COX-2 (#4842), NRF2 (D1C9), p-JNK1/2 (Thr183/Tyr185, #4671), p-p38 (Thr180/Tyr182, #9216), p-ERK1/2 (Thr202/Tyr204, #9101), BiP/GRP78 (C50B12), IRE1a (14C10), CHOP (L63F7) and PERK (D11A8) from Cell Signaling Technology; p-IRE1a (Ser724; NB100-2323) from Novus Biologicals; GCLC (Ab41463), beta-actin (ab8227) and ATF6 (Ab37149) from Abcam; p-PERK (Thr 981, sc-32577) and ATF3 (C19) were purchased from Santa Cruz. All primary antibodies were used at 1:1000 dilutions and secondary antibodies were 1:3000 in TBS-T with 5% BSA.

[6] = system: MAPKs (ERK1/2, JNK1/2 and p38) and ATF2; assay: Western blot of MAPK phosphorylation; type: cell-based; conditions: MDA-MB231 cells, 8 h
Description: as §1

[7] = system: NFκB-responsive firefly luciferase construct in MDA-MB231 cells; assay: NFκB gene reporter assay; type: cell-based, human; conditions: MDA-MB231, pre-incubation with inhibitor
Description: (§2) Prior to transfection, cells were plated in 96-well plates to 80-90% confluence (100 μL antibiotic free-medium) after 24 h. When used, siRNA were incubated by reverse transfection during cells seeding. […] A mixture of non-inducible firefly luciferase construct and constitutively expressing Renilla luciferase construct (40:1) were used as negative controls. Approximately 24 h post-transfection, the medium was changed and the cells were treated for 12 h with alkylating agents (with/out 6 h pre-treatments). At the end of this period, medium was changed to drug-free fresh medium (to minimize the effect of alkylating toxicity on promoters activity) and cells were kept for an additional 12 h.

[8] = system: AP1-responsive firefly luciferase construct in MDA-MB231 cells; assay: AP-1 gene reporter assay; type: cell-based, human; conditions: MDA-MB231, pre-incubation with inhibitor
Description: as §2

MDA-MB231 cells = assay: Extracellular matrix invasion assay (Boyden chamber); type: cell-based, human; conditions: direct incubation
Description: (§3) Quantification of MMP1 and MMP3 content in culture medium was assessed using RayBio-MMP3 and RayBio-MMP1 Elisa Kit (RayBiotech, Inc); IL8 was analyzed by Human IL-8 Elisa kit (Pierce Biotechnology). The levels of prostaglandin E2 (PGE2) were determined using the Prostaglandin E2 EIA Kit Monoclonal (Cayman Chemical Company). Culture media were diluted to fit within the standard curves. For conditioned media (CM) preparation for invasion and in vitro angiogenesis experiments, 12-well plated cells were treated with MMS (or MMS plus inhibitors) for 8 h in the presence of 10% FBS, twice washed with HBSS, and incubated with 700 μL drug/serum-free fresh medium for additional 12 h. Thereafter, the conditioned fresh medium was collected and directly used for migration and invasion experiments in order to reduce freezing associated loss of activity.
The invasion potential of breast cancer cells was estimated using the QCM™ 24-Well Cell Invasion Assay Fluorimetric (Millipore). Serum starved cells were trypsinized, trypsin-inhibited, centrifuged, resuspended to 5000 cells/μL, and 50 μL of this suspension (250,000 cells) was seeded on 8 μm pore size inserts coated with extracellular matrix in serum-free conditions. Afterwards, 200 μL conditioned (CM) or fresh medium without serum was added to top chambers. The bottom chamber consisted of 500 μL of DMEM supplemented with 10% FBS as chemoattractant. Cells were allowed to migrate for 24 h at 37° C. under 5% CO2. Invaded cells were detached from the bottom side of the insert, lysed and incubated with CyQuant GR fluorescent Dye for 15 min. Fluorescence was read at Ex/Em=480/520 nm. Percentage of invading cells was compared to cell number standard curves.

human endothelial cells = assay: In vitro angiogenesis (Angiophase kit, CD31); type: cell-based; conditions: direct incubation
Description: as §3
The Angiophase kit (MBL Inc.) was used to assess the angiogenic potential of conditioned media (CM) from breast cancer cells or the direct effect of pharmaceutical inhibitors (free-drug system) on vessel-like structures formation in vitro. With this kit, human endothelial cells are co-cultured in a specially designed medium to form threadlike tubule structures. These gradually join up to form a network of anastomosing tubules, which resemble the capillary bed found in the CAM assay. Kit-provided cryopreserved co-culture of human endothelial cells were plated and kept for 96 h (proliferative phase) without treatments. Afterwards, the cells were maintained in the presence of conditioned medium from alkylating agent treated cells or control medium for a total of 14 days (angiogenic/vasculogenic phase). Medium was changed each 2 days. At the end of treatments, the cells were fixed and immune-stained for CD31 (PECAM-1), following by incubation with secondary antibody conjugate. ELISA was developed using the soluble substrate p-nitrophenyl-phosphate (p-NPP) whose product was colorimetrically read at 405 nm. After ELISA assays, the wells were washed with dH2O and tubule staining was performed by incubating CD31-stained tubules with the substrate BCIP/NBT, which form insoluble precipitates. Tubules were counted and photographed for qualitative monitoring.

| Compound | effect on MMS toxicity [3] | effect on toxicity of 4-HC, TMZ and CDDP [3] | effect on ROS levels [2] | effect on GSH levels [4] | trans-well invasion, purified factor (MDA-MB231 cells) | further results |
| --- | --- | --- | --- | --- | --- | --- |
| CCCCS(=N)(=O)CCC(N)C(=O)O (centres unmarked) [BSO, buthionine sulfoximine] | substantial necrotic cell death | potentiated | – | – | – | effect on depletion of protein-SH residues by MMS [1]: potentiated the depletion of protein-SH residues by MMS; ROS production, agent alone ([2]; BSO 2.5 mM, CDDP 75 μM, TMZ 1.5 mM, 4HC 75 μM, 12 h): increased ROS to levels higher than the dose of MMS used; effect on MMS-induced ROS ([2]; BSO plus MMS): 2 fold; viability, agent alone ([3]; 2.5 mM, up to 48 h): without effect on viability |
| CCOC(=O)CNC(=O)[C@H](CS)NC(=O)CC[C@H](N)C(=O)O [GSH-E, glutathione ethyl-ester] | protective against MMS toxicity | attenuated | reduced ROS below levels of the control | effectively increased the GSH levels | – | – |
| CC(=O)N[C@@H](CS)C(=O)O [NAC, N-Acetyl-Cysteine] | protective against MMS toxicity | attenuated | reduced ROS below levels of the control | effectively increased the GSH levels | – | effect on MMS-induced NRF2 activation [5]: block both NRF2 activation and ER stress caused by MMS; effect on MMS-induced MAPK phosphorylation [6]: inhibited; effect on BSO+MMS toxicity ([3]; NAC pretreatment): rescued the deleterious effects of BSO+MMS combination |
| N#CC(=C(/N)Sc1ccccc1N)/C(C#N)=C(/N)Sc1ccccc1N [UO126] | – | – | – | – | – | decrease in cell numbers (anti-proliferative, not cytotoxic) (MDA-MB231): 30%; effect on MMS-induced activation of NFκB reporter [7]: blocked; effect on MMS-induced activation of AP-1 reporter [8]: blocked |
| IL8: purified IL8 | – | – | – | – | stimulated trans-well invasion | vessel-like structure formation, purified factor (human endothelial cells): angiogenic |
| MMP1: purified MMP1 | – | – | – | – | stimulated trans-well invasion | – |
